Reference: patent publication EP2573089A1, “Novel artmisinin derivatives” (Spago Imaging AB, priority 2011, dated 2013)

Type: physicochemical
Conditions: for area of the main peak has decreased: after 72h at pH = 2.3, sodiumphosphate buffer, HPLC-ELSD
Protocol: Example 11. The acid stability of four dihydroartemisinin (DHA) derivatives was investigated. […] Phenomex Luna; 50 x 4.6 mm, 3 μ C18. ACN/H2O; 60/40 at 1.0 ml/min DHA dissolved in mob. phase to give 0,21 mg/ml Compound of formula 1, n=4 (3PEG-DHA) dissolved in H2O to give 0.48 mg/ml in 0.1 M buffer. […] Artemisone dissolved in mob. phase to give 0.20 mg/ml in 0.1 M buffer, Artesunate dissolved in mob. phase to give 0.24 mg/ml in 0.1 M buffer. 20 μ[…]

| SMILES | degradation | area of the main peak has decreased | degraded (72 h, 0.24 mg/ml, pH 2.3) |
| --- | --- | --- | --- |
| C[C@H]1[C@H](N2CCS(=O)(=O)CC2)O[C@@H]2O[C@@]3(C)CC[C@H]4[C@H](C)CC[C@@H]1[C@@]24OO3 [artemison, artemisone] | No sign of degradation | about 71% |  |
| C[C@H]1[C@H](OC(=O)CCC(=O)O)O[C@@H]2O[C@@]3(C)CC[C@H]4[C@H](C)CC[C@@H]1[C@@]24OO3 [artesunate] | No sign of degradation | about 40% | 41% |
